# Measurements from patent publication US10532995B2, “Substituted pyrazole compounds as serine protease inhibitors” (VERSEON CORPORATION, priority 2015, dated 2020).
# pIC50: −log10 of the molar value. Counter-ions that a name gives are not always drawn.
# Molecular target: T1, Human thrombin (Homo sapiens, UniProt P00734)
# T1 construct: purchased Haematologic Technologies Inc
# Assay: Thrombin protease activity inhibition, chromogenic substrate S-2238
# Type: biochemical
# Details: 3 nM thrombin, 125 μM S-2238, 10 min pre-incubation, RT
# Method in brief: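 Ten-point, three-fold serial dilutions of compound tested against 3 nM enzyme at RT in Tris buffer (0.05 M, pH 7.4) with 0.015 M NaCl and 0.01% PEG-8000.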
row,pIC50,SMILES
1,< 4.00,"C=CCOC(=O)N1CCC(c2n[nH]c(NCc3ccc(Cl)s3)c2C)CC1 [Entry 271, prop-2-en-1-yl 4-(5-[(5-chlorothiophen-2-yl)methyl]amino-4-methyl-1H-pyrazol-3-yl)piperidine-1-carboxylate]"
2,< 4.00,"Cc1c(C2CCN(C(=O)c3cscn3)CC2)n[nH]c1NCc1ccc(Cl)s1 [Entry 236, N-[(5-chlorothiophen-2-yl)methyl]-4-methyl-3-[1-(1,3-thiazole-4-carbonyl)piperidin-4-yl]-1H-pyrazol-5-amine]"
3,> 7.00,"COc1ccccc1C(=O)n1nc(C2CCCN(C(=O)OC(C)(C)C)C2)cc1NCc1ccc(Cl)s1 (centres unmarked) [Entry 281, tert-butyl 3-(5-[(5-chlorothiophen-2-yl)methyl]amino-1-(2-methoxybenzoyl)-1H-pyrazol-3-yl)piperidine-1-carboxylate]"
4,4.00 to 5.00,"C=CCOC(=O)N1C2CCC1CC(c1cc(NCc3ccc(Cl)s3)[nH]n1)C2 (centres unmarked) [Entry 257, prop-2-en-1-yl 3-(5-[(5-chlorothiophen-2-yl)methyl]amino-1H-pyrazol-3-yl)-8-azabicyclo[3.2.1]octane-8-carboxylate]"
5,5.00 to 6.00,"C=CCOC(=O)N1CCN(C(=O)CN2CCOCC2)CC1c1cc(NCc2ccc(Cl)s2)n(C(=O)C(C)(C)C)n1 (centres unmarked) [Entry 245, prop-2-en-1-yl 2-(5-[(5-chlorothiophen-2-yl)methyl]amino-1-(2,2-dimethylpropanoyl)-1H-pyrazol-3-yl)-4-[2-(morpholin-4-yl)acetyl]piperazine-1-carboxylate]"
6,5.00 to 6.00,"Clc1ccc(CNc2cc(C3CCCNC3)n[nH]2)s1 (centres unmarked) [Entry 186, N-[(5-chlorothiophen-2-yl)methyl]-3-(piperidin-3-yl)-1H-pyrazol-5-amine]"
7,< 4.00,"Clc1ccc(CNc2cc(C3CCN(Cc4ccccc4)CC3)n[nH]2)s1 [Entry 113, 3-(1-benzylpiperidin-4-yl)-N-[(5-chlorothiophen-2-yl)methyl]-1H-pyrazol-5-amine]"
8,6.00 to 7.00,"CC(C)(C)OC(=O)N1CCCC(C)(c2cc(NCc3ccc(Cl)s3)n(C(=O)C3(C)CCOCC3)n2)C1 (centres unmarked) [Entry 286, tert-butyl 3-(5-[(5-chlorothiophen-2-yl)methyl]amino-1-(4-methyloxane-4-carbonyl)-l H-pyrazol-3-yl)-3-methylpiperidine-1-carboxylate]"
9,< 4.00,"C=CCOC(=O)N1CCC(c2cc(NCc3ccc(Cl)s3)[nH]n2)C1 (centres unmarked) [Entry 259, prop-2-en-1-yl 3-(5-[(5-chlorothiophen-2-yl)methyl]amino-1H-pyrazol-3-yl)pyrrolidine-1-carboxylate]"
10,6.00 to 7.00,"CC(C)(CO)C(=O)n1nc(C2(C)CCCNC2=O)cc1NCc1ccc(Cl)s1 (centres unmarked) [Entry 119, 3-(5-[(5-chlorothiophen-2-yl)methyl]amino-1-(3-hydroxy-2,2-dimethylpropanoyl)-1H-pyrazol-3-yl)-3-methylpiperidin-2-one]"
11,< 4.00,"CC(C)(C)OC(=O)N1CCCC1(C)c1cc(NCc2ccc(Cl)s2)n(C(=O)c2ccsc2)n1 (centres unmarked) [Entry 276, tert-butyl 2-(5-[(5-chlorothiophen-2-yl)methyl]amino-1-(thiophene-3-carbonyl)-1H-pyrazol-3-yl)-2-methylpyrrolidine-1-carboxylate]"
12,5.00 to 6.00,"Clc1ccc(CNc2cc(C3CCN(Cc4c[nH]cn4)CC3)n[nH]2)s1 [Entry 197, N-[(5-chlorothiophen-2-yl)methyl]-3-[1-(1H-imidazol-4-ylmethyl)piperidin-4-yl]-1H-pyrazol-5-amine]"
13,6.00 to 7.00,"CN1CCC(C)(C(=O)n2nc(C3CCN(C(=O)N4CCOCC4)CC3)cc2NCc2ccc(Cl)s2)CC1 [Entry 142, N-[(5-chlorothiophen-2-yl)methyl]-1-(1,4-dimethylpiperidine-4-carbonyl)-3-[1-(morpholine-4-carbonyl)piperidin-4-yl]-1H-pyrazol-5-amine; formic acid]"
14,< 4.00,"O=C(C1CCCC1)n1nc(C2CCNCC2)cc1NCc1ccc(Cl)s1 [Entry 170, N-[(5-chlorothiophen-2-yl)methyl]-1-cyclopentanecarbonyl-3-(piperidin-4-yl)-1H-pyrazol-5-amine hydrochloride]"
15,> 7.00,"O=C(c1ccsc1)n1nc(C2CCCO2)cc1NCc1ccc(Cl)s1 (centres unmarked) [Entry 183, N-[(5-chlorothiophen-2-yl)methyl]-3-(oxolan-2-yl)-1-(thiophene-3-carbonyl)-1H-pyrazol-5-amine]"
16,< 4.00,"Clc1ccc(CNc2cc(C3CCOCC3)n[nH]2)s1 [Entry 182, N-[(5-chlorothiophen-2-yl)methyl]-3-(oxan-4-yl)-1H-pyrazol-5-amine]"
17,6.00 to 7.00,"COC(C)(C)C(=O)n1nc(C2CCNCC2)c(F)c1NCc1ccc(Cl)s1 [Entry 86, 1-(5-[(5-chlorothiophen-2-yl)methyl]amino-4-fluoro-3-(piperidin-4-yl)-1H-pyrazol-1-yl)-2-methoxy-2-methylpropan-1-one]"
18,> 7.00,"C=CCOC(=O)N1C2CCC1CC(c1cc(NCc3ccc(Cl)s3)n(C(=O)C(C)(C)C)n1)C2 (centres unmarked) [Entry 254, prop-2-en-1-yl 3-(5-[(5-chlorothiophen-2-yl)methyl]amino-1-(2,2-dimethylpropanoyl)-1H-pyrazol-3-yl)-8-azabicyclo[3.2.1]octane-8-carboxylate]"

row,pIC50,SMILES
1,< 4.00,"FC(F)(F)CN1CCC(c2cc(NCc3ccc(Cl)s3)[nH]n2)CC1 [Entry 198, N-[(5-chlorothiophen-2-yl)methyl]-3-[1-(2,2,2-trifluoroethyl)piperidin-4-yl]-1H-pyrazol-5-amine]"
2,< 4.00,"COCCN1CCC(c2cc(NCc3ccc(Cl)s3)[nH]n2)CC1 [Entry 200, N-[(5-chlorothiophen-2-yl)methyl]-3-[1-(2-methoxyethyl)piperidin-4-yl]-1H-pyrazol-5-amine]"
3,5.00 to 6.00,"CC1(C(=O)n2nc(C3(C)CCCNC3)cc2NCc2ccc(Cl)s2)CCOCC1 (centres unmarked) [Entry 162, N-[(5-chlorothiophen-2-yl)methyl]-1-(4-methyloxane-4-carbonyl)-3-(3-methylpiperidin-3-yl)-1H-pyrazol-5-amine]"
4,6.00 to 7.00,"O=C(c1ccsc1)n1nc(C2CCOCC2)cc1NCc1ccc(Cl)s1 [Entry 181, N-[(5-chlorothiophen-2-yl)methyl]-3-(oxan-4-yl)-1-(thiophene-3-carbonyl)-1H-pyrazol-5-amine]"
5,6.00 to 7.00,"CN(C)S(=O)(=O)N1CCC(c2cc(NCc3ccc(Cl)s3)n(C(=O)C(C)(C)C)n2)CC1 [Entry 133, 4-(5-[(5-chlorothiophen-2-yl)methyl]amino-1-(2,2-dimethylpropanoyl)-1H-pyrazol-3-yl)-N,N-dimethylpiperidine-1-sulfonamide]"
6,5.00 to 6.00,"O=C(c1cccc2c1OCCO2)n1nc(C2CNC2)cc1NCc1ccc(Cl)s1 [Entry 126, 3-(azetidin-3-yl)-N-[(5-chlorothiophen-2-yl)methyl]-1-(2,3-dihydro-1,4-benzodioxine-5-carbonyl)-1H-pyrazol-5-amine; trifluoroacetic acid]"
7,6.00 to 7.00,"CC1(C(=O)n2nc(C3(C)CCNC3=O)cc2NCc2ccc(Cl)s2)CCOCC1 (centres unmarked) [Entry 122, 3-(5-[(5-chlorothiophen-2-yl)methyl]amino-1-(4-methyloxane-4-carbonyl)-1H-pyrazol-3-yl)-3-methylpyrrolidin-2-one]"
8,> 7.00,"C=CCOC(=O)N1CCC(c2nn(C(=O)c3cscn3)c(NCc3ccc(Cl)s3)c2C)CC1 [Entry 270, prop-2-en-1-yl 4-(5-[(5-chlorothiophen-2-yl)methyl]amino-4-methyl-1-(1,3-thiazole-4-carbonyl)-1H-pyrazol-3-yl)piperidine-1-carboxylate]"
9,< 4.00,"O=C(N1CCOCC1)N1C2CCC1CC(c1cc(NCc3ccc(Cl)s3)[nH]n1)C2 (centres unmarked) [Entry 214, N-[(5-chlorothiophen-2-yl)methyl]-3-[8-(morpholine-4-carbonyl)-8-azabicyclo[3.2.1]octan-3-yl]-1H-pyrazol-5-amine]"
10,6.00 to 7.00,"COc1ccccc1C(=O)n1nc(C2CCCNC2)cc1NCc1ccc(Cl)s1 (centres unmarked) [Entry 157, N-[(5-chlorothiophen-2-yl)methyl]-1-(2-methoxybenzoyl)-3-(piperidin-3-yl)-1H-pyrazol-5-amine]"
11,> 7.00,"CC(C)(C)OC(=O)N1CCC(C)(c2cc(NCc3ccc(Cl)s3)n(C(=O)C(C)(C)C)n2)CC1 [Entry 291, tert-butyl 4-(5-[(5-chlorothiophen-2-yl)methyl]amino-1-(2,2-dimethylpropanoyl)-1H-pyrazol-3-yl)-4-methylpiperidine-1-carboxylate]"
12,< 4.00,"O=C(N1CCOCC1)N1CCNC(c2cc(NCc3ccc(Cl)s3)[nH]n2)C1 (centres unmarked) [Entry 212, N-[(5-chlorothiophen-2-yl)methyl]-3-[4-(morpholine-4-carbonyl)piperazin-2-yl]-1H-pyrazol-5-amine hydrochloride]"
13,> 7.00,"CC(C)(C)C(=O)n1nc(C2CC3CCC(C2)N3S(C)(=O)=O)cc1NCc1ccc(Cl)s1 (centres unmarked) [Entry 81, 1-(5-[(5-chlorothiophen-2-yl)methyl]amino-3-8-methanesulfonyl-8-azabicyclo[3.2.1]octan-3-yl-1H-pyrazol-1-yl)-2,2-dimethylpropan-1-one]"
14,6.00 to 7.00,"O=C(c1ccccc1)n1nc(C2CCNCC2)cc1NCc1ccc(Cl)s1 [Entry 105, 1-benzoyl-N-[(5-chlorothiophen-2-yl)methyl]-3-(piperidin-4-yl)-1H-pyrazol-5-amine hydrochloride]"
15,< 4.00,"FC(F)(F)C(c1ccccn1)N1CCC(c2cc(NCc3ccc(Cl)s3)[nH]n2)CC1 (centres unmarked) [Entry 221, N-[(5-chlorothiophen-2-yl)methyl]-3-1-[2,2,2-trifluoro-1-(pyridin-2-yl)ethyl]piperidin-4-yl-1H-pyrazol-5-amine]"
16,> 7.00,"C=CCOC(=O)N1CCC(c2cc(NCc3ccc(Cl)s3)n(C(=O)C(C)(C)C)n2)CC1 [Entry 262, prop-2-en-1-yl 4-(5-[(5-chlorothiophen-2-yl)methyl]amino-1-(2,2-dimethylpropanoyl)-1H-pyrazol-3-yl)piperidine-1-carboxylate]"
17,5.00 to 6.00,"CC1(c2cc(NCc3ccc(Cl)s3)n(C(=O)c3ccsc3)n2)CCNCC1 [Entry 180, N-[(5-chlorothiophen-2-yl)methyl]-3-(4-methylpiperidin-4-yl)-1-(thiophene-3-carbonyl)-1H-pyrazol-5-amine]"
